Source: patent US11208404B2 (PERENNA PHARMACEUTICALS, INC., priority 2017, dated 2021)
Where two headings read alike, the source gives them in different places.

How the values were obtained:
ALCAT1 [1] = target: T1, ALCAT1 (Homo sapiens (Human), UniProt Q6UWP7); assay: In vitro acyltransferase assay for ALCAT1 inhibitors; type: biochemical; conditions: for % inh @ 1 μM / inhibition at 1 µM: 1 μM compound, in vitro enzymatic assay; for IC50: ALCAT1 enzyme activity
Outline: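 Membrane fractions from Sf9 cells expressing human ALCAT1 incubated 30 min at room temperature with 100 µM MLCL or LPG and 25 µM [14C]acyl-CoA (or 100 µM NBD-CoA) in 50 mM Tris/HCl pH 7.0.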
Target sequence in this assay (Q6UWP7 whole entry): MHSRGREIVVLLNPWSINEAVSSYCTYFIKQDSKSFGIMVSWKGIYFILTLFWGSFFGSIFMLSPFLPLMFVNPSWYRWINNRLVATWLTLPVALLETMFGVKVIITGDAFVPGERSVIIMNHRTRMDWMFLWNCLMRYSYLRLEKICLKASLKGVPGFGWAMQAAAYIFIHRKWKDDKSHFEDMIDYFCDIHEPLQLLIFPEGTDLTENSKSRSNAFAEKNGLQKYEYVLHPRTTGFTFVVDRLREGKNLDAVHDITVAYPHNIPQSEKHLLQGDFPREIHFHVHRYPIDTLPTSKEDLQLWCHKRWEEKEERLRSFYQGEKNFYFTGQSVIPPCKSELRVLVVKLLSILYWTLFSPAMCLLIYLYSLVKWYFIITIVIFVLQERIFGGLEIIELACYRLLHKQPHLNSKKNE

ALCAT1 [2] = target: T1, ALCAT1; assay: Cell-based assay for ALCAT inhibitor compounds (H9C2 cells); conditions: H9c2, 3 μM compound; H9C2 vector cell line and H9C2 with stable overexpression of ALCAT1
Method: The assay was performed on the H9C2 vector cell line and H9C2 with stable overexpression of ALCAT1. Materials used in the protocol were CoA, LPG, compounds, chloroform, methanol, 0.9% KCl, 6-well-plates, 1.5 mL tubes, DMEM, FBS, P/S and PBS.
Cells were seeded in 6-well-plates, 8×10^5 cells/well, and cultured at 37° C. in 5% CO2 overnight.
Cells were washed once with ice-cold PBS, collected in ice-cold PBS and centrifuged at 5000 rpm for 5 min at 4° C. 200 μL of chloroform: methanol (2:1) was added to the cell pellet, which was vortexed to suspend the cells and incubated at RT for 1 hr.
40 μL of 0.9% KCl was added and the sample was vortexed before centrifugation at 10000 rpm for 5 min at RT. The aqueous phase (upper layer) was discarded and the organic phase (lower layer) was loaded to a TLC plate (10 cm×20 cm), 40 μL/sample.
The plates were developed in chloroform: methanol: water (65:25:4) for about 30 min and scanned using a Typhoon Scanner. The bands intensity was analysed using ImageJ and the inhibition activity of the tested compounds was calculated.
Compound inhibitors for ALCAT1 enzyme were analyzed by an in vitro cell-based assay as detailed above.
Target sequence in this assay (Q6UWP7 whole entry, species assumed): as the sequence (Q6UWP7 whole entry) above

[3] = read-out: IC50 values (upper bounds)
[4] = triplicates, GraphPad, read-out: IC50

| % inh @ 1 μM (ALCAT1 [1]) | inhibition at 1 µM (ALCAT1 [1]) | IC50 (ALCAT1 [1]; [3]) | IC50 (ALCAT1 [1]; [4]) | inhibition at 3 µM (ALCAT1 [2]) | SMILES |
| --- | --- | --- | --- | --- | --- |
| 96% | 98% | < 100 nM | 20 nM | 31% | O=C(Nc1cc(-c2nnc(-c3ccco3)o2)ccc1F)c1cc(Cl)ccc1OC(F)(F)F [Compound 304, 5-Chloro-N-(2-fluoro-5-(5-(furan-2-yl)-1,3,4-oxadiazol-2-yl)phenyl)-2-(trifluoromethoxy)benzamide] |
|  | 100% | < 100 nM | 21 nM | 34% | O=C(Nc1cc(-c2nnc(-c3ccco3)o2)ccc1F)c1cc(Cl)ccc1OC(F)F [Compound 305, 5-Chloro-2-(difluoromethoxy)-N-(2-fluoro-5-(5-(furan-2-yl)-1,3,4-oxadiazol-2-yl)phenyl)benzamide] |
|  | 100% | < 100 nM | 19 nM | 30% | O=C(Nc1cc(-c2nnc(-c3ccco3)o2)ccc1F)c1cc(Cl)ccc1OCF [Compound 306, 5-Chloro-N-(2-fluoro-5-(5-(furan-2-yl)-1,3,4-oxadiazol-2-yl)phenyl)-2-(fluoromethoxy)benzamide] |
|  | 94% |  | 64 nM | 19% | O=C(Nc1cc(-c2nnc(-c3ccco3)o2)ccc1F)c1ccccc1OCC(F)(F)F [Compound 313, N-(2-Fluoro-5-(5-(furan-2-yl)-1,3,4-oxadiazol-2-yl)phenyl)-2-(2,2,2-trifluoroethoxy)benzamide] |
|  | 95% | < 100 nM | 29 nM | 36% | O=C(Nc1cc(-c2nnc(-c3ccco3)o2)ccc1F)c1ccccc1OCC(F)F [Compound 314, 2-(2,2-Difluoroethoxy)-N-(2-fluoro-5-(5-(furan-2-yl)-1,3,4-oxadiazol-2-yl)phenyl)benzamide] |
| 92% | 94% |  | 38 nM | 75% | Cc1ccc(OCCF)c(C(=O)Nc2cc(-c3nnc(-c4ccco4)o3)ccc2F)c1 [Compound 321, N-(2-Fluoro-5-(5-(furan-2-yl)-1,3,4-oxadiazol-2-yl)phenyl)-2-(2-fluoroethoxy)-5-methylbenzamide] |
|  | 96% |  | 78 nM | 45% | COc1ccc(C(F)(F)F)cc1C(=O)Nc1cc(-c2nnc(-c3ccco3)o2)ccn1 [Compound 396, N-(4-(5-(Furan-2-yl)-1,3,4-oxadiazol-2-yl)pyridin-2-yl)-2-methoxy-5-(trifluoromethyl)benzamide] |
|  | 96% |  | 62 nM | 50% | COc1ccc(OC(F)(F)F)cc1C(=O)Nc1cc(-c2nnc(-c3ccco3)o2)ccn1 [Compound 400, N-(4-(5-(Furan-2-yl)-1,3,4-oxadiazol-2-yl)pyridin-2-yl)-2-methoxy-5-(trifluoromethoxy)benzamide] |
|  | 98% | < 100 nM | 19 nM | 45% | COc1ccc(C(F)(F)F)cc1C(=O)Nc1cc(-c2nnc(-c3ccco3)o2)ccc1F [Compound 416, N-(2-Fluoro-5-(5-(furan-2-yl)-1,3,4-oxadiazol-2-yl)phenyl)-2-methoxy-5-(trifluoromethyl)benzamide] |

The remaining lines, values behind:

| SMILES | % inh @ 1 μM (ALCAT1 [1]) | inhibition at 1 µM (ALCAT1 [1]) | IC50 (ALCAT1 [1]; [3]) | IC50 (ALCAT1 [1]; [4]) | inhibition at 3 µM (ALCAT1 [2]) |
| --- | --- | --- | --- | --- | --- |
| O=C(Nc1cc(-c2nnc(-c3ccco3)o2)ccc1F)c1cc(F)ccc1OCCF [Compound 312, 5-Fluoro-N-(2-fluoro-5-(5-(furan-2-yl)-1,3,4-oxadiazol-2-yl)phenyl)-2-(2-fluoroethoxy)benzamide] |  | 98% | < 100 nM | 33 nM | 4% |
| O=C(Nc1cc(-c2nnc(-c3ccco3)o2)ccc1F)c1cc(Cl)ccc1OCC(F)F [Compound 317, 5-Chloro-2-(2,2-difluoroethoxy)-N-(2-fluoro-5-(5-(furan-2-yl)-1,3,4-oxadiazol-2-yl)phenyl)benzamide] |  | 96% | < 100 nM | 19 nM | 52% |
| O=C(Nc1cc(-c2nnc(-c3ccco3)o2)ccc1F)c1cc(Cl)ccc1OCCF [Compound 318, 5-Chloro-N-(2-fluoro-5-(5-(furan-2-yl)-1,3,4-oxadiazol-2-yl)phenyl)-2-(2-fluoroethoxy)benzamide] |  | 98% | < 100 nM | 24 nM | 36% |
| O=C(Nc1cc(-c2nnc(-c3ccco3)o2)ccc1F)c1cc(F)ccc1OCC(F)(F)F [Compound 319, 5-Fluoro-N-(2-fluoro-5-(5-(furan-2-yl)-1,3,4-oxadiazol-2-yl)phenyl)-2-(2,2,2-trifluoroethoxy)benzamide] |  | 96% |  | 46 nM | 12% |
| O=C(Nc1cc(-c2nnc(-c3ccco3)o2)ccc1F)c1cc(F)ccc1OCC(F)F [Compound 320, 2-(2,2-Difluoroethoxy)-5-fluoro-N-(2-fluoro-5-(5-(furan-2-yl)-1,3,4-oxadiazol-2-yl)phenyl)benzamide] |  | 96% | < 100 nM | 34 nM | 17% |
| Cc1ccc(OCC(F)(F)F)c(C(=O)Nc2cc(-c3nnc(-c4ccco4)o3)ccc2F)c1 [Compound 322, N-(2-fluoro-5-(5-(furan-2-yl)-1,3,4-oxadiazol-2-yl)phenyl)-5-methyl-2-(2,2,2-trifluoroethoxy)benzamide] |  | 94% |  | 61 nM | 26% |
| Cc1ccc(OCC(F)F)c(C(=O)Nc2cc(-c3nnc(-c4ccco4)o3)ccc2F)c1 [Compound 323, 2-(2,2-Difluoroethoxy)-N-(2-fluoro-5-(5-(furan-2-yl)-1,3,4-oxadiazol-2-yl)phenyl)-5-methylbenzamide] |  | 96% | < 100 nM | 26 nM | 14% |
| CCOc1ccc(CC)cc1C(=O)Nc1cc(-c2nnc(-c3ccco3)o2)ccn1 [Compound 373, 2-Ethoxy-5-ethyl-N-(4-(5-(furan-2-yl)-1,3,4-oxadiazol-2-yl)pyridin-2-yl)benzamide] |  | 98% |  | 38 nM | 3% |
| COc1ccc(OC(F)(F)F)cc1C(=O)Nc1cc(-c2nnc(-c3ccco3)o2)ccc1F [Compound 405, N-(2-Fluoro-5-(5-(furan-2-yl)-1,3,4-oxadiazol-2-yl)phenyl)-2-methoxy-5-(trifluoromethoxy)benzamide] |  | 98% | < 100 nM | 19 nM | 52% |
| CCOc1ccc(CC)cc1C(=O)N(c1cc(-c2nnc(-c3ccco3)o2)ccc1F)P(=O)(O)O [Compound 497, (2-ethoxy-5-ethylbenzoyl) (2-fluoro-5-(5-(furan-2-yl)-1,3,4-oxadiazol-2-yl)phenyl)phosphoramidic acid] |  | 90% |  | 72 nM | 75% |
